{
  "source": "patent US9862730B2",
  "about": "“Imidazothiadiazole derivatives as protease activated receptor 4 (PAR4) inhibitors for treating platelet aggregation” (BRISTOL-MYERS SQUIBB COMPANY, priority 2012, dated 2018)",
  "tested_on": "electrolytic injury-induced carotid artery thrombosis",
  "test": "Cynomolgus monkey electrolytic injury-induced carotid artery thrombosis model",
  "assay_type": "in vivo",
  "conditions": "oral, dose response",
  "description": "The efficacy of the PAR4 antagonists of the present invention in preventing thrombosis can also be measured in a variety of in vivo assays. Exemplary mammals that can provide models of thrombosis and hemostasis to test the effectiveness of the PAR4 antagonists of the present invention as antithrombotic agents include, but are not limited to, guinea pigs and primates. Relevant efficacy models include, but are not limited to, electrolytic injury-induced carotid artery thrombosis, FeCl3-induced carotid artery thrombosis and arteriovenous-shunt thrombosis. […]\nOn the day of the study, compounds or vehicles were administered orally at 1 to 2 hours before the experiment. […] Blood pressure and heart rate were monitored to maintain normal vital signs.\nCarotid blood flow was measured with an appropriately sized TRANSONIC® flow probe and a TRANSONIC® perivascular flowmeter (TS420 Model, Transonic Systems Inc., Ithaca, N.Y.). It was continuously recorded over a 90-min period to monitor thrombosis-induced occlusion. Integrated carotid blood flow was measured by the area under the flow-time curve. It was expressed as percent of total control carotid blood flow, which would result if control blood flow had been maintained continuously for 90 min. […]",
  "data": [
    {"smiles": "COc1cc(OCc2cccc(OCc3ccccc3)c2)c2cc(-c3cn4nc(OC)sc4n3)oc2c1", "note": "[Example 205, 6-(4-((3-(Benzyloxy)benzyl)oxy)-6-methoxybenzofuran-2-yl)-2-methoxyimidazo[2,1-b][1,3,4]thiadiazole]", "values": [
      {"measurement": "antithrombotic efficacy / inhibition of thrombus formation (FIG. 5)", "value": "demonstrating the in vivo antithrombotic efficacy"}
    ]}
  ]
}
